Measured values: paper PMC12728616, “Regioselective Glycosylation of Fluorine-18-Labeled Sorbitol for Enhanced Bacterial Detection In Vivo Using PET” (JACS Au, 2025)
“And” between values parts separate entries of the source, which are not always exact repeats. Identical values can stand only once.

Assays:
K. pneumoniae = assay: PET/CT in K. pneumoniae pneumonia murine model; type: in vivo, mice; settings: for PET signal in heat-killed K. pneumoniae inoculated lungs: 10x heat-killed K. pneumoniae; for ex vivo infected/uninfected lung ratio: ex vivo gamma counting after PET; for ROI-derived infected/uninfected lung ratio: in vivo PET, 80 min postinjection (mid time), 24 h after intranasal K. pneumoniae
Experimental: Given promising low background signals in uninfected mice, we further evaluated [^18F]-FNT and [^18F]-FMT in two different clinically relevant mouse models of lung and muscle infections. […] PET scanning was performed at 24 h postintranasal bacterial installation (Figure A). […] The ROI-derived infected/uninfected lung ratios of [^18F]-FDS, [^18F]-FMT, and [^18F]-FNT were approximately 3.2, 6.1, and 5.9-fold, respectively (Figure C), also supported by the ex vivo infected/uninfected lung ratio of [^18F]-FDS (∼1.6-fold), [^18F]-FMT (∼5.7-fold), and [^18F]-FNT (∼5.7-fold) (Figure D). Post-PET scans, infected lungs were harvested to determine colony forming units (CFUs). No significant differences in bacterial counts were observed among [^18F]-FDS, [^18F]-FMT, and [^18F]-FNT (Figure E). To confirm radiotracer specificity, we also evaluated mice inoculated with 10x heat-killed K. pneumoniae into lungs (Supporting Information Figure S5A–C).
All animal procedures were conducted in accordance with UCSF institutional guidelines and were approved by the Institutional Animal Care and Use Committee (IACUC). Female CBA/J mice (9 and 11 weeks old) were used for the study. Pulmonary infection and bacterial myositis models were established based on previously published protocols. , For pulmonary infection, 50 μL of K. pneumoniae (5 × 10^6 CFU) or 10× heat-killed K. pneumoniae were administered intranasally under anesthesia 24 h prior to imaging using PET. After PET scans, infected lungs were homogenized in PBS and plated on LB agar. Plates were incubated overnight at 37 °C to quantify the bacterial burden. For the bacterial myositis model, mice were intramuscularly injected with either 1 × 10^6 CFUs of live S. aureus (MSSA or MRSA) or 1 × 10^7 CFUs of heat-killed bacteria (50 μL) into the left and right deltoid muscles, respectively, 10 h prior to imaging using PET. Immediately following all imaging studies, target tissues were harvested, and radioactivity was measured using a gamma counter.
μPET/CT imaging was conducted using a nanoScan μPET/CT instrument (PET123S/CT1512, Mediso). Mice were anesthetized with 2% isoflurane/oxygen for intravenous administration of ^18F-tracers (∼5 MBq in 150 μL) via tail vein and maintained during data acquisition. PET data of uninfected mice were acquired in the list mode for 90 min, starting immediately after ^18F-tracer administration, followed by a CT scan. The PET data were reconstructed into three-dimensional volumes and coregistered with CT images using manufacturer-provided software in 53 dynamic frames (15 × 2 s, 6 × 5 s, 6 × 10 s, 4 × 30 s, 6 × 30 s, and 16 × 300 s). PET data of infected mice were acquired for 20 min, starting at 70 min postinjection of ^18F-tracer (mid time 80 min), followed by a CT scan. The list mode PET data were reconstructed into three-dimensional volumes in a single static frame. All PET scans were corrected for ^18F decay, dead time, and random coincidences and reconstructed into a 160 × 160 × 184 matrix with voxel size 0.8 mm using a three-dimensional ordered subject expectation maximization (OSEM) algorithm (40 iterations, 1 subset). Both attenuation and scatter corrections were applied to PET reconstructions using the coregistered CT. ROIs were drawn manually around the brain, lungs, liver, kidney, and urinary bladder using Amide software to generate image-derived TACs. For the estimation of blood pool radioactivity over time, ROIs were drawn on the left atrium. To estimate the plasma half-life of tracers, the TAC of the blood pool was fitted to a two-compartment model using a biexponential decay function: C t(t) = Ae ^–αt + Be ^ ‑βt , where C t(t) is the tracer concentration (% IDcc^–1) at time (t), A and B are the intercepts, and α and β are the distribution and elimination rate constants, respectively. , Quantitative uptake values are expressed as % IDcc^–1, representing the percent of the total injected dose per cubic centimeter. […]

[1] = In vitro stability in serum; type: in vitro ADME, mouse; settings: up to 120 min at 37 °C
Enterococcus faecalis = assay: In vitro uptake of 18F-tracers by bacteria; type: cell-based; settings: E. faecalis; 37 °C, 90 min
Experimental: (§1) In vitro evaluation of ^18F-tracers was conducted according to our established procedure. Briefly, bacteria were incubated overnight at 37 °C, subcultured into a fresh medium at an initial OD600 of 0.05, and then allowed to reach the mid log phase (OD600 ∼ 0.4). The cultures were subsequently incubated with ^18F-tracers (final concentration: 0.1 MBq/mL) at 37 °C for 90 min. Subsequently, 300 μL aliquots of these cultures were centrifuged at 13,200 rpm for 6 min. The resulting pellets were washed with 300 μL of phosphate-buffered saline (PBS). The radioactivity of the pellets and supernatants was measured using a gamma counter. Uptake values were normalized to colony-forming units (CFUs).

Streptococcus agalactiae = assay: In vitro uptake of 18F-tracers by bacteria; type: cell-based; settings: S. agalactiae; 37 °C, 90 min
Experimental: as §1

S. aureus (ATCC 29213) = assay: In vitro uptake of 18F-tracers by bacteria; type: cell-based, Staphylococcus aureus
Experimental: as §1

[2] = Radio-HPLC analysis of urine samples (metabolic stability in vivo); settings: urine from healthy mice 90 min after i.v. administration
Experimental: 7 Dosimetry extrapolated to humans and metabolic stability of [^18F]-FNT. (A) Estimated absorbed dose (mGy/MBq) extrapolated from murine biodistribution data using ICRP103 (adult female, 60 kg). (B–D) Representative radio-HPLC profiles of [^18F]-FDS (B), [^18F]-FNT (C), and urine samples collected from healthy mice 90 min following [^18F]-FNT administration via i.v. (D).

[3] = Human radiation dosimetry extrapolated from murine biodistribution; type: in vivo
Experimental: A dosimetry study was carried out in female CBA/J mice (n = 4, 9–11 weeks). Human organ and whole-body effective doses were extrapolated from the mice biodistribution data according to our previous report. For each organ, absorbed and equivalent doses (mGy/MBq or mSv/MBq), as well as whole-body effective doses (mSv/MBq), were calculated from murine data. Dose estimations were performed with OLINDA software (v1.1 and 2.0 with ICRP 60 and 103 tissue weighting factors). ,

[4] = test system: methicillin-resistant S. aureus (MRSA) clinical isolates; assay: In vitro uptake in clinical isolates; type: cell-based, Staphylococcus aureus; settings: P < 0.0001
Experimental: as §1

[5] = test system: methicillin-sensitive S. aureus (MSSA) clinical isolates; assay: In vitro uptake in clinical isolates; type: cell-based, Staphylococcus aureus; settings: vs S. aureus ATCC 29213; P < 0.0001
Experimental: as §1

SMILES | PET signal in heat-killed K. pneumoniae inoculated lungs (K. pneumoniae) | ex vivo infected/uninfected lung ratio (K. pneumoniae) [fold] | ROI-derived infected/uninfected lung ratio (K. pneumoniae) | in vitro stability in mouse serum [1] | in vitro uptake (Enterococcus faecalis) | in vitro uptake (Streptococcus agalactiae) | uptake in the presence of nonradioactive [19F]FNT (blocking) (S. aureus (ATCC 29213); S. aureus ATCC 29213, 1 mM [19F]FNT, P < 0.0001) | in vitro uptake (S. aureus (ATCC 29213); S. aureus, 37 °C, 90 min) | uptake in heat-killed S. aureus (S. aureus (ATCC 29213); heat-killed bacteria, P < 0.0001) | metabolic stability in vivo (urine radio-HPLC) [2] | calculated human effective dose ([3]; ICRP 60) [mSv/MBq] | kidneys dose ([3]; ICRP 60 model) [mSv/MBq] | urinary bladder dose ([3]; ICRP 60 model) [mSv/MBq] | calculated human effective dose ([3]; ICRP 103) [mSv/MBq] | kidneys dose ([3]; ICRP 103 model) [mSv/MBq] | urinary bladder dose ([3]; ICRP 103 model) [mSv/MBq] | estimated organ-absorbed doses overall ([3]; overall, called low) [mSv/MBq] | higher uptake in clinically isolated MRSA compared with [18F]FMT ([4]; in vitro) | uptake in clinical MRSA isolates compared to the reference MSSA strain ([4]; vs S. aureus ATCC 29213) | uptake in clinical MSSA isolates compared to the reference MSSA strain [5]
OC[C@@H](O)[C@@H](O[C@H]1O[C@H](CO)[C@@H](O)[C@H](O)[C@H]1O)[C@H](O)[C@@H]([18F])CO [[18F]FMT, 2-deoxy-2-[18F]fluoro-D-maltitol] | No visible signal | ~5.7 | ~6 fold and ~6.1 fold | intact | – | – | – | – | – | – | – | – | – | – | – | – | – | – | – | –
OC[C@@H](O)[C@@H](O)[C@H](O[C@H]1O[C@H](CO)[C@@H](O)[C@H](O)[C@H]1O)[C@@H]([18F])CO [[18F]FNT, 2-deoxy-2-[18F]fluoro-D-nigeritol] | No visible signal | ~5.7 | ~6 fold and ~5.9 fold | intact | moderate uptake | low | significantly reduced | moderate uptake | no uptake | remained intact, with no degradation observed | 0.0163 ± 0.0012 | 0.0753 ± 0.0307 | 0.1783 ± 0.0314 | 0.0126 ± 0.0005 | 0.0751 ± 0.0307 | 0.1518 ± 0.0262 | > 0.02 | approximately 4 fold | higher uptake | higher uptake
